Measurements from patent US20230276803A1, “A PESTICIDALLY ACTIVE MIXTURE COMPRISING THIETANYLOXY COMPOUND, OXIDES OR SALTS THEREOF” (PI INDUSTRIES LTD., priority 2020, published 2023).

Assays:
Assay type in all cases: in vivo
Spodoptera litura [1] = assay: Diet incorporation method against Spodoptera litura (Example B); settings: 96 h
Excerpt: (§1) In which E represents the expected percentage of inhibition of the pests for the combination of two insecticides or one insecticide and one fungicide at defined doses (for example equal to x and y respectively), x is the percentage of inhibition observed for the pest/disease by the compound (1) at a given dose (equal to x), y is the percentage of inhibition observed for the pest/disease by the compound (2) or (3) at a defined dose (equal to y). When the percentage of inhibition observed for the combination is greater than E, there is a synergistic effect.
The diet incorporation method was used, in which semi-synthetic diet was incorporated into the test solution consisting either of the single compound or respective compound combinations, when the temperature was approximately 50° C. in the bioassay containers, then stirred thoroughly for proper mixing and allowed to cool for 30 min. The solidified diet was cut into equal pieces, and then each piece was transferred into one cell of the bio-assay trays. A single starved third instar larva was released into each of these cells of the bio-assay trays and the tray was covered with a lid. The bio-assay trays were kept under laboratory conditions at a temperature of 25° C. and relative humidity of 70%. Observations on dead, moribund and live larvae were recorded 96 h after the release. Percent mortality was calculated by combining dead and moribund larvae and comparing the result with the one of the untreated control. The results are shown for the compound of formula (I-1) in Table B.

Helicoverpa armigera = assay: Leaf dip method (tomato leaves), Bacillus thuringiensis mixture against Helicoverpa armigera (Example D); settings: 0.1 ppm; 72 h
Excerpt: as §1
(§2) The leaf dip method was used, wherein the required quantity of the compounds were weighed and dissolved in a test solution prepared in tubes. The tubes were put on a vortex at 2000 rpm for 90 min for proper mixing and then, for the single compounds, diluted with a 0.01% Triton-X solution, for the combinations, diluted with a 0.01% Triton-X solution containing formulated Bt, to get the desired test concentrations. Tomato leaves were dipped in the solution for 10 seconds, shade dried for 20 min and then transferred to single cells of the bioassay trays. […] Observations on dead, moribund and live larvae were recorded at 72 h after the release. Percent mortality was calculated by combining dead and moribund larvae and comparing the result to the one of the untreated control. […]

Plutella xylostella = assay: Leaf dip method (cabbage leaves), Bacillus thuringiensis mixture against Plutella xylostella (Example F); settings: 0.1 ppm; 72 h
Excerpt: as §1
as §2, with “desired test concentration. Cabbage leaves were” for “desired test concentrations. Tomato leaves were”, “cells of bioassay trays.” for “cells of the bioassay trays.”, “were recorded 72 h” for “were recorded at 72 h”, “comparing the results to the” for “comparing the result to the”

Spodoptera litura [2] = assay: Leaf dip method (tomato leaves), Bacillus thuringiensis mixture against Spodoptera litura (Example E); settings: 0.1 ppm; 72 h
Excerpt: as §1
as §2, with “concentration.” for “concentrations.”, “results” for “result”

Pyricularia oryzae = settings: 500 ppm; preventive spray, rice

Q: Which pest or weed control at 0.32 ppm (Spodoptera litura [1]; read-out: Observed Efficacy (%), 0.32 ppm) does the source give for `Cc1cc(Cl)cc(C(=O)NC(C)(C)C)c1NC(=O)c1cc(OC2CS(=O)(=O)C2)nn1-c1ncccc1Cl` [Compound (I-1), N-(2-(tert-butylcarbamoyl)-4-chloro-6-methylphenyl)-1-(3-chloropyridin-2-yl)-3-((1,1-dioxidothietan-3-yl)oxy)-1H-pyrazole-5-carboxamide] here?
A: Its pest or weed control at 0.32 ppm is 37.5%.

Q: And the pest or weed control at 1 ppm (Spodoptera litura [1]; read-out: Observed Efficacy (%), 1 ppm)?
A: The pest or weed control at 1 ppm was 25%.

Q: And the “Observed Efficacy (%)” value (Helicoverpa armigera)?
A: Its value is 12.5%.

Q: And the “Observed Efficacy (%)” value (Plutella xylostella)?
A: Its value is 0%.

Q: And the “Observed Efficacy (%)” value (Spodoptera litura [2])?
A: The value was 0%.

Q: And the “Observed Efficacy (%)” value (Pyricularia oryzae)?
A: The value was 38%.
